Laboratory results reported in publication PMC5799266, “ComX-Induced Exoproteases Degrade ComX in Bacillus subtilis PS-216” (Frontiers in Microbiology, 2018).
Where no end group is shown, it is not given here.

Assays:
[1] = tested on: exoproteases in B. subtilis PS-216 floating biofilm spent media; assay: Proteolytic activity of harvested floating biofilm spent media with EDTA or subtilisin added after harvest (casein-gelatin plates); type: biochemical, Bacillus subtilis; conditions: EDTA 1 mM added to wt floating biofilm spent medium, 16 h at 37°C
Method: To prepare casein gelatin agar plates 1% (w/v) casein sodium salt from bovine milk (Sigma–Aldrich, United States) and 1% (w/v) gelatin from porcine skin (Sigma–Aldrich, United States) were thoroughly dissolved in 0.02 M NaOH and the pH was equilibrated to 7 ± 0.2 as described by [Montville (1983)]. […] Finally, 1.5% (w/v) of agar was added to the casein gelatin medium. The casein gelatin medium was autoclaved at 110°C. 40 ml of the medium was poured into Petri dishes with 9 cm diameter. Wells (6 mm diameter) were cut into the casein gelatin agar using an agar punch cutter.
Proteolytic activity was determined in B. subtilis spent medium at different time points. The spent medium below the biofilm was centrifuged for 5 min at 8000 g to remove remaining planktonic cells and sterilized through filters with 0.2 μm pores. Spent medium was diluted in 10 mM sodium acetate buffer with 5 mM calcium acetate (pH 7.5). If EDTA was added to experimental samples, spent medium was diluted in PBS buffer (10 mM sodium phosphate dibasic, 1 mM potassium phosphate monobasic, 137 mM NaCl, and 2.7 mM KCl pH 7). The diluted spent medium (100 μl) was dispensed into the wells punched into the casein gelatin agar. The plates were incubated for 16 h at 37°C when the proteolytic zones were measured. […]

[2] = tested on: PaprE-gfp expression in B. subtilis PS-216 mutants; assay: PaprE-gfp expression during formation of floating biofilm, complementation with ComX; type: cell-based, Bacillus subtilis
Method: To measure gene expression in floating biofilms (pellicles) a spore suspension 1% (v/v) was inoculated into the liquid MSgg medium. In some experiments the MSgg medium was supplemented with 20% (v/v) of the spent medium containing ComX, which was heterologously produced by E. coli ED367 ([Ansaldi et al., 2002]). The spent M9 medium of E. coli ED367 that was not induced by IPTG was used as a negative control.
Briefly, 200 μl aliquots of inoculated MSgg medium, sometimes supplemented with M9 spent medium were dispensed in a sterile 96-well black transparent bottom microtiter plate in four technical replicates. The lid was sealed with micropore tape and the space between wells was filled with sterile distilled water to minimize the effect of medium evaporation. The microtiter plate was incubated in the Cytation 3 imaging reader (BioTek, United States) at 37°C without shaking. Optical density at 650 nm and fluorescence intensity were measured in half hour intervals for up to 60 h. Fluorescence intensity of GFP (green fluorescent protein) was used to monitor PaprE-gfp expression with excitation at 480 nm and emission at 510 nm. The gain was set on 50. In a parallel experimental setup the same strains without the fluorescent marker were always cultured. To calculate the final expression the autofluorescence of unmarked strains was deducted from the fluorescence of the marked strains. Fluorescence intensity was normalized per OD650 of fluorescently labeled strains at each time point.

[3] = tested on: exoprotease production of B. subtilis PS-216 ΔcomQ floating biofilms; assay: Proteolytic activity in spent media of floating biofilms grown with ComX (casein-gelatin plates); type: cell-based, Bacillus subtilis; conditions: ΔcomQ mutant, 24 h floating biofilm in MSgg + 20% (v/v) ED367 M9 spent medium with ComX, 12-well plates, 37°C; casein-gelatin plate zones; three biological replicates
Method: (§1) To harvest pellicle spent media 1% (v/v) of B. subtilis spores were inoculated in 4 ml of MSgg medium ([Branda et al., 2001]), in some cases complemented with 20% (v/v) spent M9 minimal medium and incubated in sterile 12-well microtiter plates in static conditions at 37°C.
To prepare casein gelatin agar plates 1% (w/v) casein sodium salt from bovine milk (Sigma–Aldrich, United States) and 1% (w/v) gelatin from porcine skin (Sigma–Aldrich, United States) were thoroughly dissolved in 0.02 M NaOH and the pH was equilibrated to 7 ± 0.2 as described by [Montville (1983)]. Wherever, the proteolytic inhibition by ethylenediaminetetraacetic acid (EDTA) was tested, EDTA was added to the casein gelatin medium in 1 mM final concentration. Finally, 1.5% (w/v) of agar was added to the casein gelatin medium. The casein gelatin medium was autoclaved at 110°C. 40 ml of the medium was poured into Petri dishes with 9 cm diameter. Wells (6 mm diameter) were cut into the casein gelatin agar using an agar punch cutter.
Proteolytic activity was determined in B. subtilis spent medium at different time points. The spent medium below the biofilm was centrifuged for 5 min at 8000 g to remove remaining planktonic cells and sterilized through filters with 0.2 μm pores. […] The plates were incubated for 16 h at 37°C when the proteolytic zones were measured. […]

[4] = tested on: exoproteases in B. subtilis PS-216 floating biofilm spent media; assay: ComX biological activity decay in floating biofilm spent media (biosensor BM1456, PsrfAA-yfp); type: in vitro ADME, Bacillus subtilis; conditions: for ComX biological activity decay: T0 vs 24 h at 37°C, three biological replicates
Method: (§2) The ComX biological activity was quantified in spent media of various B. subtilis strains harvested after 36 and 48 h of static growth, using biosensor strains: B. subtilis BM1456 and BM1400. […] The BM1400 strain only served to determine background fluorescence, since it carries no fluorescent marker. […] The BM1456 biosenor responds to ComX in the spent medium by inducing the PsrfAA-yfp reporter ([Oslizlo et al., 2014]). Since the induction of PsrfAA is proportional to the quantity of ComX ([Ansaldi et al., 2002]) we used this assay to estimate the quantity of biologically active ComX in the spent media of various pellicles.
(§3) Both biosensor strains were grown in 5 ml of CM medium supplemented with 1% (v/v) of filtered spent media of selected strains for 6 h at 37°C with shaking (200 rpm). After 6 h of incubation 200 μl aliquots were dispensed in a sterile 96-well black transparent bottom microtiter plate. The PsrfAA-yfp expression was quantified by YFP (yellow fluorescent protein) fluorescence intensity. YFP was excited at 510 nm and emissions were measured at 530 nm. The gain was set to 100. Each PsrfAA-yfp reading was normalized to OD650. The normalized autofluorescence background of BM1400 grown in the same experimental conditions was subtracted. Additionally, we subtracted the PsrfAA-yfp expression of cells exposed to ΔcomQ spent medium (lacks ComX), to account for ComX independent YFP expression.
ComX biological activity was determined in the spent media immediately after harvest (T0) and after a 24 h (T24) incubation at 37°C. We reasoned that if exoproteases in the spent medium degrade ComX the ComX biological activity at T0 will be greater than at T24. To calculate the ComX biological activity decay we used the following equation:
ComXbiologicalactivitydecay[%]= ComXbiologicalactivity(To)−ComXbiologicalactivity(T24)/ComXbiologicalactivity(To)*100
The same approach was used to determine ComX biological activity decay in the spent media supplemented with subtilisin (0.1 mg/ml) or metalloprotease inhibitor EDTA (1 mM) after harvesting or to estimate the effect of commercially available subtilisin on ComX heterologously produced in E. coli ED367.

subtilisin = assay: ComX biological activity decay in E. coli ED367 M9 spent medium with subtilisin (biosensor BM1456); type: in vitro ADME; conditions: E. coli ED367 M9 spent medium with heterologous ComX, subtilisin 0.1 mg/ml, 24 h at 37°C, vs subtilisin untreated control, three biological replicates
Method: as §2
as §3, with “Additionally, we subtracted the PsrfAA-yfp expression of cells exposed to ΔcomQ spent medium (lacks ComX), to account for ComX independent YFP expression.” left out
ComX biological activity was determined in the spent media immediately after harvest (T0) and after a 24 h (T24) incubation at 37°C. […]

[5] = tested on: B. subtilis PS-216 ΔcomQ floating biofilm; assay: Floating biofilm morphology after addition of ComX; type: cell-based, Bacillus subtilis; conditions: ΔcomQ mutant at 24 h, MSgg + 20% (v/v) ED367 M9 spent medium with ComX
Method: as §1

## O=C(O)CN(CCN(CC(=O)O)CC(=O)O)CC(=O)O [EDTA, ethylenediaminetetraacetic acid]
[1]
  effect on proteolytic activity of spent medium: decreases

## ComX: auto-inducing signaling peptide of B. subtilis ComQXPA system, modified by isoprenyl transferase ComQ; native in spent media or heterologously produced by E. coli ED367 (ADPITRQWGD; also: isoprenylated by ComQ, site not given here; UniProt P45453 46-55, looked up)
[2]; degQ::tet mutant of PS-216, MSgg + 20% (v/v) ED367 M9 spent medium with ComX
  complementation of PaprE-gfp expression: does not complement
[2]; ΔcomQ degQ::tet double mutant of PS-216, MSgg + 20% (v/v) ED367 M9 spent medium with ComX
  complementation of PaprE-gfp expression: does not complement
[2]; ΔcomQ mutant of PS-216, floating biofilm in MSgg + 20% (v/v) M9 spent medium of IPTG-induced E. coli ED367 (heterologous ComX), 37°C, control non-induced spent medium, GFP fluorescence per OD650, three biological replicates
  complementation of PaprE-gfp expression: complementation was partial
[3]
  complementation of spent media proteolytic activity: complemented
[4]; comP::cat or degQ::tet spent media + subtilisin 0.1 mg/ml added after harvest vs without, 24 h at 37°C, biosensor BM1456
  ComX biological activity decay, change with subtilisin: increased
[4]; spent media of mutant strains (degQ::tet, comP::cat; low proteolytic activity) harvested at 36 and 48 h, biosensor BM1456
  ComX biological activity decay: low
[4]; spent media of wt PS-216 floating biofilms harvested at 36 and 48 h (MSgg), biosensor BM1456 PsrfAA-yfp fluorescence
  ComX biological activity decay: high
[4]; wt spent medium + EDTA 1 mM added after harvest vs without, 24 h at 37°C, biosensor BM1456
  ComX biological activity decay, change with EDTA: decreases
subtilisin
  decay of the ComX biological activity, change with subtilisin: increases
[5]
  floating biofilm morphology: restores the ΔcomQ mutant floating biofilm morphology to the wt morphology
